Read-outs that look alike come from different tables or passages of the source.

Assay [1] has as its system HCV replicon D168V variant in Huh7 cells. As to the kind of experiment: microbe, parasite or virus in culture. The format is cell-based, Hepatitis C virus. The note with it: for EC50: Hepatitis C virus; for Replicon EC50 (Fold change) D168V: Table 4, relative to WT replicon. Put shortly: (§1)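 Huh7, electroporated w/ Con1 (gt1b) luc replicon RNA carrying H77 (gt1a) NS3; mutants by site-directed mutagenesis. Increasing PI concentrations; luciferase (RLU) read 96 h post-electroporation.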

Assay [2] addresses GT1a D168A NS3/4A protease. In kind it is biochemical, Hepatitis C virus. Particulars: Table 3; Ki D168A relative to GT1a WT. In a few lines:
(§2)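 NS3/4A protease (2 nM; wild-type GT1a or D168A) pre-incubated 1 h at room temperature with increasing inhibitor in 50 mM Tris pH 7.5, 5% glycerol, 10 mM DTT, 0.6 mM LDAO, 4% DMSO. Ki from three independent data sets per construct; ΔG=RTlnKi.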

In assay [3] the target is T1, GT1a D168A NS3/4A protease (UniProt P27958, C1185S/D1194A, species not given).
T1 construct: Ki (nM) GT1a D168A NS3/4A Protease
In kind it is biochemical, Hepatitis C virus. The note with it: read-out: Ki (nM) GT1a D168A NS3/4A Protease. Put shortly: as §2

Assay [4] concerns the target T2, wild-type GT1a NS3/4A protease (UniProt P27958, C1185S, species not given).
T2 construct: Ki (nM) GT1a WT NS3/4A Protease
The format is biochemical, Hepatitis C virus. Particulars: read-out: Ki (nM) GT1a WT NS3/4A Protease. Put shortly:
as §2

For assay [5], the system named is wild-type HCV replicon in Huh7 cells. As to the kind of experiment: Cell-based drug susceptibility (replicon) assay, wild-type. Particulars: Hepatitis C virus, read-out: Replicon EC50 (nM) WT. Put shortly:
as §1

In assay [6] the test system is HCV replicon A156T variant in Huh7 cells. The experiment in a line: microbe, parasite or virus in culture. The format is cell-based, Hepatitis C virus. Particulars: for EC50: Hepatitis C virus; for Replicon EC50 (Fold change) A156T: Table 4, relative to WT replicon. Put shortly: as §1
On the technique in general: A replicon is a self-replicating genome or part of one, used to study replication in cells.

The test system of assay [7] is HCV replicon D168A variant in Huh7 cells. As to the kind of experiment: microbe, parasite or virus in culture. The format is cell-based, Hepatitis C virus. Particulars: for EC50: Hepatitis C virus; for Replicon EC50 (Fold change) D168A: Table 4, relative to WT replicon. In a few lines: as §1
Assay [8] concerns HCV replicon R155K variant in Huh7 cells. The experiment in a line: microbe, parasite or virus in culture. The format is cell-based, Hepatitis C virus. Particulars: for EC50: Hepatitis C virus; for Replicon EC50 (Fold change) R155K: Table 4, relative to WT replicon. Put shortly: as §1
The next assay addresses T3, GT3a NS3/4A protease (Hepatitis C virus genotype 3a, UniProt Q81495).
T3 construct: drug-resistant variant D168A, and GT3a NS3/4A protease; made in house; host or cells: Escherichia coli BL21(DE3)
As to the kind of experiment: biochemical. Particulars: for Ki (Fold change) GT3a NS3/4A Protease: Table 3, Ki GT3a relative to GT1a WT. As for the experimental part: For each assay, 2 nM of NS3/4A protease (GT1, D168A and GT3) was pre-incubated at room temperature for 1 h with increasing concentration of inhibitors in assay buffer [50 mM Tris, 5% glycerol, 10 mM DTT, 0.6 mM LDAO, and 4% dimethyl sulfoxide]. Inhibition assays were performed in nonbinding surface 96-well black half-area plates (Corning) in a reaction volume of 60 μt. […] Three independent data sets were collected for each inhibitor with each protease construct.

Setting [9] is: Huh-7, 96 h, read-out: Replicon EC50 (nM) D168V, Table 2, Huh7 cells, luciferase 96 h.
Setting [10] is: Huh-7, read-out: Replicon EC50 (nM) D168V, Table 4.
Setting [11] is: Huh-7, 96 h, Table 2, Huh7 cells, luciferase 96 h.
[12] abbreviates: Huh-7, 96 h, read-out: Replicon EC50 (nM) A156T, Table 2, Huh7 cells, luciferase 96 h.
[13] abbreviates: Huh-7, read-out: Replicon EC50 (nM) A156T, Table 4.
Setting [14] is: Huh-7, 96 h, read-out: Replicon EC50 (nM) D168A, Table 2, Huh7 cells, luciferase 96 h.
Setting [15] is: Huh-7, read-out: Replicon EC50 (nM) D168A, Table 4.
[16] abbreviates: Huh-7, 96 h, read-out: Replicon EC50 (nM) R155K, Table 2, Huh7 cells, luciferase 96 h.
Where [17] appears, read: Huh-7, read-out: Replicon EC50 (nM) R155K, Table 4.

T3 sequence (Q81495 1033-1214): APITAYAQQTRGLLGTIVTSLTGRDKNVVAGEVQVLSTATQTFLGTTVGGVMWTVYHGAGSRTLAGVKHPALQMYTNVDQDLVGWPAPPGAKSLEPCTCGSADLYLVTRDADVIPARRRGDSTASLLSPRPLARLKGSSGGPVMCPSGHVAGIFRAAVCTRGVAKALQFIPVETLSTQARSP

For `COc1ccc2nc(Cl)c(O[C@@H]3C[C@H]4C(=O)N[C@]5(C(=O)NS(=O)(=O)C6CC6)C[C@H]5/C=C\CCCCC[C@H](NC(=O)OC5CCCC5)C(=O)N4C3)nc2c1` [Compound 22c, Cyclopentyl ((2R,6S,13aS,14aR,16aS,Z)-2-((3-chloro-7-methoxyquinoxalin-2-yl)oxy)-14a-((cyclopropylsulfonyl)carbamoyl)-5,16-dioxo-1,2,3,5,6,7,8,9,10,11,13a,14,14a,15,16,16a-hexadecahydrocyclopropa[e]pyrrolo[1,2-a][1,4]diazacyclopentadecin-6-yl)carbamate], the concentration for a half-maximal effect (EC50) – broadly, the concentration at which the effect is half-maximal – in assay [1] (setting [9]) was found to be 1.55 nM; in assay [1] (setting [10]), 1.55 nM; in assay [5] (setting [11]) it was 0.15 nM; in assay [5] (Huh-7, Table 4) it was 0.15 nM; in assay [6] (setting [12]) it was 3.55 nM; in [6] (setting [13]) it was 3.55 nM. Moreover, the EC50 came out at 1.32 nM in assay [7] (setting [14]), 1.32 nM in assay [7] (setting [15]), 0.59 nM in [8] (setting [16]) and 0.59 nM in [8] (setting [17]). In assay [1], the “Replicon EC50 (Fold change) D168V” value is “(10) fold”. The “Ki (Fold change) GT1a D168A NS3/4A Protease” value in assay [2] was “(62) fold”. Besides, the Ki in [3] (Table 1) worked out at 30.6 nM; in assay [3] (Table 3) it was 30.6 ± 2.6 nM; in [4] (Table 1) it was 0.49 nM; in assay [4] (Table 3) it was 0.49 nM; on GT3a NS3/4A protease, 85.6 nM. The “Replicon EC50 (Fold change) A156T” value in assay [6] was “(24) fold”. In addition, the “Replicon EC50 (Fold change) D168A” value in [7] is reported as “(9) fold”. Also, the “Replicon EC50 (Fold change) R155K” value in assay [8] was “(4) fold”. Further, the “Ki (Fold change) GT3a NS3/4A Protease” value on GT3a NS3/4A protease is on record as “(175) fold”.

For the compound `COc1ccc2nc(C(F)(F)F)c(O[C@@H]3C[C@H]4C(=O)N[C@]5(C(=O)NS(=O)(=O)C6CC6)C[C@H]5/C=C\CCCCC[C@H](NC(=O)OC5CCCC5)C(=O)N4C3)nc2c1` [Compound 22d, Cyclopentyl ((2R,6S,13aS,14aR,16aS,Z)-14a-((cyclopropylsulfonyl)carbamoyl)-2-((7-methoxy-3-(trifluoromethyl)quinoxalin-2-yl)oxy)-5,16-dioxo-1,2,3,5,6,7,8,9,10,11,13a,14,14a,15,16,16a-hexadecahydrocyclopropa[e]pyrrolo[1,2-a][1,4]diazacyclopentadecin-6-yl)carbamate], the EC50 in assay [1] (setting [9]) was 24 nM; in assay [1] (setting [10]), 24 nM; in [5] (setting [11]), 4.86 nM; in [5] (Huh-7, Table 4) it was 4.86 nM; in [6] (setting [12]) it was 117 nM; in assay [6] (setting [13]), 117 nM. Further, the concentration for a half-maximal effect (EC50) in assay [7] (setting [14]) turned out to be 15.1 nM; in assay [7] (setting [15]), 15.1 nM; in assay [8] (setting [16]), 7.97 nM; in assay [8] (setting [17]), 7.97 nM. Besides, in [1], the “Replicon EC50 (Fold change) D168V” value was “(5) fold”. Also, the “Ki (Fold change) GT1a D168A NS3/4A Protease” value in [2] is reported as “(15) fold”. For the same compound, the Ki in assay [3] (Table 1) amounted to 115 nM; in [3] (Table 3), 115 ± 12 nM; in assay [4] (Table 1) it was 7.55 nM; in assay [4] (Table 3), 7.55 nM; on GT3a NS3/4A protease, 757 nM. Moreover, the “Replicon EC50 (Fold change) A156T” value in [6] was “(24) fold”. Further, the “Replicon EC50 (Fold change) D168A” value in [7] is given as “(3) fold”. In assay [8], the “Replicon EC50 (Fold change) R155K” value was “(2) fold”. Besides, the “Ki (Fold change) GT3a NS3/4A Protease” value on GT3a NS3/4A protease is reported as “(100) fold”.

For `CCc1nc2ccc(OC)cc2nc1O[C@@H]1C[C@H]2C(=O)N[C@]3(C(=O)NS(=O)(=O)C4(C)CC4)C[C@H]3/C=C\CCCCC[C@H](NC(=O)OC3CCCC3)C(=O)N2C1` [Compound 23a, Cyclopentyl ((2R,6S,13aS,14aR,16aS,Z)-2-((3-ethyl-7-methoxyquinoxalin-2-yl)oxy)-14a-(((1-methylcyclopropyl)sulfonyl)carbamoyl)-5,16-dioxo-1,2,3,5,6,7,8,9,10,11,13a,14,14a,15,16,16a-hexadecahydrocyclopropa[e]pyrrolo[1,2-a][1,4]diazacyclopentadecin-6-yl)carbamate], the 50% effective concentration (EC50) came to 7.08 nM in assay [1] (setting [9]); 7.08 nM in assay [1] (setting [10]); 0.16 nM in [5] (setting [11]); 0.16 nM in assay [5] (Huh-7, Table 4); 10.6 nM in assay [6] (setting [12]); 10.6 nM in [6] (setting [13]). For the same compound, the EC50 in [7] (setting [14]) was 3.45 nM; in assay [7] (setting [15]), 3.45 nM; in assay [8] (setting [16]), 2.07 nM; in assay [8] (setting [17]), 2.07 nM. Also, the “Replicon EC50 (Fold change) D168V” value in assay [1] was “(44) fold”. Besides, the “Ki (Fold change) GT1a D168A NS3/4A Protease” value in assay [2] is listed as “(40) fold”. Moreover, the Ki in [3] (Table 1) is 55.2 nM; in assay [3] (Table 3), 55.2 ± 5.3 nM; in [4] (Table 1), 1.37 nM; in assay [4] (Table 3) it was 1.37 nM; on GT3a NS3/4A protease, 186 nM. For the same compound, in assay [6], the “Replicon EC50 (Fold change) A156T” value is “(66) fold”. The “Replicon EC50 (Fold change) D168A” value in assay [7] is reported as “(22) fold”. Moreover, the “Replicon EC50 (Fold change) R155K” value in assay [8] is recorded as “(13) fold”. Further, at GT3a NS3/4A protease, the “Ki (Fold change) GT3a NS3/4A Protease” value is recorded as “(136) fold”.

With `COc1ccc2nc(Cl)c(O[C@@H]3C[C@H]4C(=O)N[C@]5(C(=O)NS(=O)(=O)C6(C)CC6)C[C@H]5/C=C\CCCCC[C@H](NC(=O)OC5CCCC5)C(=O)N4C3)nc2c1` [Compound 23c, Cyclopentyl ((2R,6S,13aS,14aR,16aS,Z)-2-((3-chloro-7-methoxyquinoxalin-2-yl)oxy)-14a-(((1-methylcyclopropyl)sulfonyl)carbamoyl)-5,16-dioxo-1,2,3,5,6,7,8,9,10,11,13a,14,14a,15,16,16a-hexadecahydrocyclopropa[e]pyrrolo[1,2-a][1,4]diazacyclopentadecin-6-yl)carbamate], the EC50 amounted to 1.09 nM in assay [1] (setting [9]); 1.09 nM in assay [1] (setting [10]); 0.15 nM in [5] (setting [11]); 0.15 nM in [5] (Huh-7, Table 4); 4.32 nM in [6] (setting [12]); 4.32 nM in assay [6] (setting [13]). Further, the EC50 in assay [7] (setting [14]) stood at 0.97 nM; in assay [7] (setting [15]), 0.97 nM; in assay [8] (setting [16]) it was 0.56 nM; in [8] (setting [17]), 0.56 nM. Moreover, the “Replicon EC50 (Fold change) D168V” value in [1] is reported as “(7) fold”. Besides, the “Ki (Fold change) GT1a D168A NS3/4A Protease” value in assay [2] is reported as “(58) fold”. Also, the Ki amounted to 25.7 nM in [3] (Table 1); 25.7 ± 1.8 nM in [3] (Table 3); 0.44 nM in [4] (Table 1); 0.44 nM in assay [4] (Table 3); 61 nM at GT3a NS3/4A protease. Besides, in assay [6], the “Replicon EC50 (Fold change) A156T” value was “(29) fold”. Further, in [7], the “Replicon EC50 (Fold change) D168A” value is “(6) fold”. Also, the “Replicon EC50 (Fold change) R155K” value in assay [8] is reported as “(4) fold”. Besides, the “Ki (Fold change) GT3a NS3/4A Protease” value on GT3a NS3/4A protease is “(139) fold”.
